PubChem BioAssay (NCI)
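Dose response: 5 concentrations. Exposure: 48 h. Format: 96-well plates. Endpoint: linear interpolation; highest concentration if not reached. TGI marks complete inhibition of growth.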

Legend:
Test in all cases: growth of human tumour cells (NCI), 48 h
HS 578T breast = tested on: HS 578T breast
CAKI-1 renal = tested on: CAKI-1 renal
M14 melanoma = tested on: M14 melanoma
SW-620 colon = tested on: SW-620 colon
SK-OV-3 ovarian = tested on: SK-OV-3 ovarian
RPMI-8226 leukemia = tested on: RPMI-8226 leukemia
UACC-62 melanoma = tested on: UACC-62 melanoma
SR leukemia = tested on: SR leukemia
OVCAR-5 ovarian = tested on: OVCAR-5 ovarian
NCI-H226 lung = tested on: NCI-H226 lung
COLO 205 colon = tested on: COLO 205 colon
T-47D breast = tested on: T-47D breast
HL-60(TB) leukemia = tested on: HL-60(TB) leukemia
HCT-116 colon = tested on: HCT-116 colon
K-562 leukemia = tested on: K-562 leukemia
OVCAR-3 ovarian = tested on: OVCAR-3 ovarian
A498 renal = tested on: A498 renal
PC-3 prostate = tested on: PC-3 prostate
HOP-62 NSCLC = tested on: HOP-62 NSCLC
OVCAR-4 ovarian = tested on: OVCAR-4 ovarian
NCI-H23 lung = tested on: NCI-H23 lung
SF-295 CNS = tested on: SF-295 CNS
SNB-19 CNS = tested on: SNB-19 CNS
MDA-MB-231 breast = tested on: MDA-MB-231 breast
SK-MEL-5 melanoma = tested on: SK-MEL-5 melanoma
EKVX NSCLC = tested on: EKVX NSCLC
HOP-92 NSCLC = tested on: HOP-92 NSCLC
OVCAR-8 ovarian = tested on: OVCAR-8 ovarian
LOX IMVI melanoma = tested on: LOX IMVI melanoma
NCI-H522 lung = tested on: NCI-H522 lung
MALME-3M melanoma = tested on: MALME-3M melanoma
CCRF-CEM leukemia = tested on: CCRF-CEM leukemia
NCI-H460 lung = tested on: NCI-H460 lung
HCC-2998 colon = tested on: HCC-2998 colon
MDA-MB-435 = tested on: MDA-MB-435
HT29 colon = tested on: HT29 colon
A549 NSCLC = tested on: A549 NSCLC
786-0 renal = tested on: 786-0 renal
MOLT-4 leukemia = tested on: MOLT-4 leukemia
UACC-257 melanoma = tested on: UACC-257 melanoma
HCT-15 colon = tested on: HCT-15 colon
IGROV1 ovarian = tested on: IGROV1 ovarian
SK-MEL-2 melanoma = tested on: SK-MEL-2 melanoma
ACHN renal = tested on: ACHN renal
BT-549 breast = tested on: BT-549 breast
MDA-N = tested on: MDA-N
TK-10 renal = tested on: TK-10 renal
SN12C renal = tested on: SN12C renal
NCI/ADR-RES ovarian = tested on: NCI/ADR-RES ovarian
SK-MEL-28 melanoma = tested on: SK-MEL-28 melanoma
KM12 colon = tested on: KM12 colon
MCF7 breast = tested on: MCF7 breast
U251 CNS = tested on: U251 CNS
UO-31 renal = tested on: UO-31 renal
SF-539 CNS = tested on: SF-539 CNS
SF-268 CNS = tested on: SF-268 CNS
SNB-75 CNS = tested on: SNB-75 CNS
DU-145 prostate = tested on: DU-145 prostate
RXF 393 renal = tested on: RXF 393 renal

SMILES: O=C(O)/C=N\Nc1nc2ccccc2[nH]1
- TGI (HS 578T breast): > 100 µM
- TGI (CAKI-1 renal): > 100 µM
- TGI (M14 melanoma): > 100 µM
- TGI (SW-620 colon): > 100 µM
- TGI (SK-OV-3 ovarian): > 100 µM
- TGI (RPMI-8226 leukemia): > 100 µM
- TGI (UACC-62 melanoma): > 100 µM
- TGI (SR leukemia): > 100 µM
- TGI (OVCAR-5 ovarian): > 100 µM
- TGI (NCI-H226 lung): > 100 µM
- TGI (COLO 205 colon): > 100 µM
- TGI (T-47D breast): > 100 µM
- TGI (HL-60(TB) leukemia): > 100 µM
- TGI (HCT-116 colon): > 100 µM
- TGI (K-562 leukemia): > 100 µM
- TGI (OVCAR-3 ovarian): > 100 µM
- TGI (A498 renal): > 100 µM
- TGI (PC-3 prostate): > 100 µM
- TGI (HOP-62 NSCLC): > 100 µM
- TGI (OVCAR-4 ovarian): > 100 µM
- TGI (NCI-H23 lung): > 100 µM
- TGI (SF-295 CNS): > 100 µM
- TGI (SNB-19 CNS): > 100 µM
- TGI (MDA-MB-231 breast): > 100 µM
- TGI (SK-MEL-5 melanoma): > 100 µM
- TGI (EKVX NSCLC): > 100 µM
- TGI (HOP-92 NSCLC): > 100 µM
- TGI (OVCAR-8 ovarian): > 100 µM
- TGI (LOX IMVI melanoma): > 100 µM
- TGI (NCI-H522 lung): > 100 µM
- TGI (MALME-3M melanoma): > 100 µM
- TGI (CCRF-CEM leukemia): > 100 µM
- TGI (NCI-H460 lung): > 100 µM
- TGI (HCC-2998 colon): > 100 µM
- TGI (MDA-MB-435): > 100 µM
- TGI (HT29 colon): > 100 µM
- TGI (A549 NSCLC): > 100 µM
- TGI (786-0 renal): > 100 µM
- TGI (MOLT-4 leukemia): > 100 µM
- TGI (UACC-257 melanoma): > 100 µM
- TGI (HCT-15 colon): > 100 µM
- TGI (IGROV1 ovarian): > 100 µM
- TGI (SK-MEL-2 melanoma): > 100 µM
- TGI (ACHN renal): > 100 µM
- TGI (BT-549 breast): > 100 µM
- TGI (MDA-N): > 100 µM
- TGI (TK-10 renal): > 100 µM
- TGI (SN12C renal): > 100 µM
- TGI (NCI/ADR-RES ovarian): > 100 µM
- TGI (SK-MEL-28 melanoma): > 100 µM
- TGI (KM12 colon): > 100 µM
- TGI (MCF7 breast): > 100 µM
- TGI (U251 CNS): > 100 µM
- TGI (UO-31 renal): > 100 µM
- TGI (SF-539 CNS): > 100 µM
- TGI (SF-268 CNS): > 100 µM
- TGI (SNB-75 CNS): > 100 µM
- TGI (DU-145 prostate): > 100 µM

SMILES: COc1ccc(/C=C(/C(=O)c2ccc(Cl)cc2)N2C=CC=CC2=C(C#N)C#N)cc1OC
- TGI (HS 578T breast): 26.3 µM
- TGI (CAKI-1 renal): 5.69 µM
- TGI (M14 melanoma): 11.4 µM
- TGI (SW-620 colon): > 32.9 µM
- TGI (SK-OV-3 ovarian): > 82.1 µM
- TGI (RPMI-8226 leukemia): 8.59 µM
- TGI (UACC-62 melanoma): 28.2 µM
- TGI (RXF 393 renal): 4.75 µM
- TGI (OVCAR-5 ovarian): 32.6 µM
- TGI (NCI-H226 lung): 38.4 µM
- TGI (COLO 205 colon): 3.32 µM
- TGI (T-47D breast): 29.4 µM
- TGI (HL-60(TB) leukemia): 7.79 µM
- TGI (HCT-116 colon): 5.41 µM
- TGI (OVCAR-3 ovarian): 15.2 µM
- TGI (A498 renal): 30.5 µM
- TGI (PC-3 prostate): 12.9 µM
- TGI (HOP-62 NSCLC): 51.1 µM
- TGI (OVCAR-4 ovarian): 20.5 µM
- TGI (NCI-H23 lung): 27.5 µM
- TGI (SF-295 CNS): > 85.3 µM
- TGI (SNB-19 CNS): 32.1 µM
- TGI (MDA-MB-231 breast): 21.6 µM
- TGI (SK-MEL-5 melanoma): 22.9 µM
- TGI (EKVX NSCLC): 10.6 µM
- TGI (HOP-92 NSCLC): 13.4 µM
- TGI (OVCAR-8 ovarian): 16.1 µM
- TGI (LOX IMVI melanoma): 8.3 µM
- TGI (NCI-H522 lung): 0.953 µM
- TGI (MALME-3M melanoma): 2.91 µM
- TGI (CCRF-CEM leukemia): 0.665 µM
- TGI (NCI-H460 lung): 25.5 µM
- TGI (HCC-2998 colon): 4.2 µM
- TGI (MDA-MB-435): 19.1 µM
- TGI (HT29 colon): 13.1 µM
- TGI (A549 NSCLC): 30.4 µM
- TGI (786-0 renal): 5.29 µM
- TGI (MOLT-4 leukemia): 4.64 µM
- TGI (UACC-257 melanoma): 17.2 µM
- TGI (HCT-15 colon): 6.19 µM
- TGI (IGROV1 ovarian): 14.9 µM
- TGI (SK-MEL-2 melanoma): 29.7 µM
- TGI (ACHN renal): 11.9 µM
- TGI (BT-549 breast): 22.5 µM
- TGI (MDA-N): 20.1 µM
- TGI (TK-10 renal): 17.8 µM
- TGI (SN12C renal): 47.7 µM
- TGI (NCI/ADR-RES ovarian): 44.9 µM
- TGI (SK-MEL-28 melanoma): 11.5 µM
- TGI (KM12 colon): 42.1 µM
- TGI (MCF7 breast): 16.9 µM
- TGI (U251 CNS): 24.4 µM
- TGI (UO-31 renal): 3.44 µM
- TGI (SF-539 CNS): 22.3 µM
- TGI (SF-268 CNS): 17.2 µM
- TGI (SNB-75 CNS): 20.3 µM
- TGI (DU-145 prostate): 28.5 µM
